According to patent US8183395B2, “Compositions and methods for treating cancer” (Rutgers, The State University of New Jersey, priority 2007, dated 2012):

Key:
Assay type in all cases: cell-based
[1] = system: W2 (apoptosis competent) cells; assay: Apoptosis induction screen, MTT cell viability, W2 cells
Source text: (§1) Pro-apoptotic Bax and Bak are the essential and redundant regulators of apoptosis required for suppressing tumor growth and chemotherapeutic response. Because D3 cells are genetically deleted for Bax and Bak, there is no means to restore apoptosis in these cells, yet all apoptosis regulatory mechanisms upstream (Bcl-2, Bcl-xL, Bim, Nbk/Bik, Puma, Noxa, caspase-3, caspase-7) remain intact. […] This feature permits the use of W2 and D3 cell lines in biological screening for compounds that promote apoptosis by the criteria of killing W2 and not D3 cells. Compounds that indiscriminately kill both apoptosis-competent W2 and apoptosis-defective D3 cells are eliminated as non-specifically toxic.
(§2) W2 and D3 cells were plated in 96 and 24-well plates and incubated for 24 hours after which they were evenly spread at about 50% confluency. At this time, compounds dissolved in DMSO and diluted in growth medium (DMEM) were added to the cells at various concentrations. […] Cell viability was determined using a modification of the MTT assay, where the reduction of yellow tertazolium salt (MTT-3-(4,5-Dimethylthiazol-2-yl)-2,5) to purple formazan indicates mitochondrial activity, and thus cell viability. […] After 30 minutes incubation at 37° C., with shaking, absorbance was read at 570 nm on a Spectra MAX 250 (Molecular Devices) plate reader. Differential growth from time 0 to 48 hours was calculated. […]

[2] = system: D3 (apoptosis defective) cells; assay: Apoptosis induction screen, MTT cell viability, D3 cells; conditions: MTT assay, time 0 to 48 hours, Compound I 12 μM (FIG. 3a)
Source text: as §1, §2

[3] = system: apoptosis competent W2 cells; assay: Time-lapse microscopy of cell division and viability, W2 cells; parameters: sensitivity of W2 cells to apoptosis: dose or concentration left out as unconfirmed
Experimental: (§3) In order to determine the differential impact of apoptosis induction on cell growth and viability of W2 and D3 cells, cell division and viability was monitored via time-lapse microscopy. Cells were cultured in a time-lapse chamber equipped with controlled environmental conditions. The time-lapse microscopy system consisted of an Olympus IX71 inverted microscope fitted with temperature, humidity and CO2 controlled environmental chamber (Solent Scientific, UK) and a Coolsnap ES cooled
(§4) CCD camera. Image capturing and analysis were performed using Image-Pro Plus software (Media Cybernetics, USA). Phase contrast images (100×) at multiple fields were obtained for the indicated time period. Time-lapse images were converted to movies using Image-Pro Plus software with custom modifications and a graphic data processing workstation (Dell Precision 670).
(§5) W2 and D3 cells were incubated for 48 hours in the presence of Compound I […] (FIG. 3b).

[4] = system: apoptosis resistant D3 cells; assay: Time-lapse microscopy of cell division and viability, D3 cells; parameters: dose or concentration left out as unconfirmed
Experimental: as §3, §4, §5

C=C1CC/C=C(\C)CC[C@@H]2C(C(CC3OC3(C)C)OC(C)=O)=CO[C@H](OC(C)=O)[C@@H]12 (some centres unmarked) [Compound I, 9-deacetoxyxeniculin]
death of W2 ([1]; MTT assay, time 0 to 48 hours, Compound I 12 μM (FIG. 3a)): 50%
growth of D3 [2]: 61%
sensitivity of W2 cells to apoptosis ([3]; 48 hours): highly sensitive to apoptosis
time to induction of cell death of W2 cells (rounded and detached) ([3]; DMEM with 10% FBS, 5% CO2 at 37° C.): 18 to 24 h
growth arrest in treated D3 cells [4]: clear indication of growth arrest
survival of the D3 cells [4]: at least 72 hours
viability of D3 cells ([4]; at 48 hours, persisted following 72 hours): retained their viability

CN[C@@H]1C[C@H]2O[C@@](C)([C@@H]1OC)n1c3ccccc3c3c4c(c5c6ccccc6n2c5c31)C(=O)NC4 [staurosporine, reference compound]
apoptosis induction (positive control) ([1]; W2 and D3 cells, 0.1 μM staurosporine): induced apoptosis at comparable levels to Compound I
